The values that follow come from patent publication US20260242419A1, “A CYCLIC PEPTIDE FOR TRAPPING INTERLEUKIN-1 BETA” (Merck Sharp & Dohme LLC, priority 2023, published 2026).

Non-standard residues stand in square brackets, D forms with d. Residues, ends and D or L forms follow the SMILES beside them. Trp(βS-Me,4-F) = C[C@@H](c1c[nH]c2cccc(F)c12)[C@H](N)C(=O)O; Bip(4'-COOH) = N[C@@H](Cc1ccc(-c2ccc(C(=O)O)cc2)cc1)C(=O)O; dPro(4R-Bzl(4-F)) = O=C(O)[C@H]1C[C@@H](Cc2ccc(F)cc2)CN1; Ala(pyrimidin-5-yl) = N[C@@H](Cc1cncnc1)C(=O)O; Phe(4-COOH) = N[C@@H](Cc1ccc(C(=O)O)cc1)C(=O)O; Pro(cis-4-F) = O=C(O)[C@@H]1C[C@H](F)CN1; AEF = NCCOc1ccc(C[C@H](N)C(=O)O)cc1; 4Pal = N[C@@H](Cc1ccncc1)C(=O)O; Orn = NCCC[C@H](N)C(=O)O; Dab = NCC[C@H](N)C(=O)O; Dap = NC[C@H](N)C(=O)O; Aib = CC(C)(N)C(=O)O

For orientation: IC50 means the concentration that gives 50% inhibition.

The target of this experiment is T1, IL-1β (Homo sapiens, UniProt P01584).
T1 construct: purchased BioLegend 579404
T1 sequence (P01584 117-269): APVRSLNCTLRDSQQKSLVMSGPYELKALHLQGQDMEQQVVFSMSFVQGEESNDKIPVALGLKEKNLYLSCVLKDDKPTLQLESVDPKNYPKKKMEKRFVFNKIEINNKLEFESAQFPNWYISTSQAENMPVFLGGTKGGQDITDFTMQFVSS
Briefly: IL-6 assay in MRC5 cells: inhibition of IL-1β induced IL-6 secretion (AlphaLISA). The class given is cell-based. The note with it: inhibition of IL-1β induced IL-6 secretion in MRC5 cells; read-out: MRC5 IC50. The procedure: Procedure for IL-6 Assay in MRC5 Cells
The inhibition of IL-1β induced IL-6 secretion was evaluated in MRC5 cells. Recombinant human IL-1β (BioLegend 579404) at 2λ EC80 concentration was prepared in seeding medium. EMEM (ATCC 30-2003) with 0.025% BSA (Sigma A9576), 1×penicillin/streptomycin (Gibco 15070-063), 1×NEAA (Gibco 11140-050), 1×GlutaMax (Gibco 35050-061), and 1×sodium pyruvate (Gibco 11360-070), 20 μL of IL-1β was added to a 384-well collagen-coated plate (Corning 354664) and pre-incubated at ambient temperature for 1 hour with 200 nL of compound dispensed using an ECHO 555 liquid handler. Human lung fibroblast MRC5 cells (ATCC CCL-171) were added at a density of 3000 cells/20 μL per well. The cells were prepared by passaging three times in growth medium, EMEM (ATCC 30-2003) with 10% fetal bovine serum (Gibco 16140-071), 1×penicillin/streptomycin (Gibco 15070-063), 1×NEAA (Gibco 11140-050), 1×GlutaMax (Gibco 35050-061), and 1×sodium pyruvate (Gibco 11360-070) in collagen-coated T175 flasks (Greiner 661950) and harvested in seeding medium after 5 minutes of 0.25% trypsin-EDTA (Gibco 25200-056) digestion. The 384-well collagen-coated plate, containing a final volume of 40 μL, was incubated at 37° C., 5% CO2 overnight. 5 μL of the conditioned medium was transferred to a 384-well AlphaLISA plate (PerkinElmer 6005350) for detection of IL-6 using the human AlphaLISA IL-6 kit (PerkinElmer AL223F) as per the manufacturer's protocol. 20 μL of the acceptor bead/biotinylated antibody mix was added to the 384-well AlphaLISA plate and incubated for 1 hour at ambient temperature. The donor bead mix was protected from light and 25 μL was added to the plate and incubated for 30 minutes at ambient temperature. The AlphaLISA plate was read on an EnVision multimode plate reader (Perkin Elmer model 2104) using the AlphaScreen setting (laser exc at 680 nm and emis at […]). Dose response curves and IC50 values were analyzed using a 4-parameter logistic equation in Spotfire software (Tibco, Palo Alto, CA).
On to `C[C@@H](c1c[nH]c2cccc(F)c12)[C@@H]1NC(=O)[C@@H]2C[C@H](F)CN2C(=O)CNC(=O)[C@H](Cc2ccc(C(=O)O)cc2)NC(=O)[C@H](Cc2ccncc2)NC(=O)[C@H](Cc2ccc(-c3ccc(C(=O)O)cc3)cc2)NC(=O)[C@H]2C[C@@H](Cc3ccc(F)cc3)CN2C(=O)CNC(=O)[C@H](CCN)NC(=O)[C@H](CCC(N)=O)NC(=O)[C@H](Cc2ccncc2)NC(=O)C(C)(C)NC(=O)[C@H](Cc2c[nH]c3ccccc23)NC(=O)[C@H](CCC(=O)O)NC(=O)C(C)(C)NC1=O` [Example 2] (cyclo([Bip(4'-COOH)][4Pal][Phe(4-COOH)]G[Pro(cis-4-F)][Trp(βS-Me,4-F)][Aib]EW[Aib][4Pal]Q[Dab]G[dPro(4R-Bzl(4-F))])), for which the IC50 amounted to 23 pM.

For the compound `C[C@@H](c1c[nH]c2cccc(F)c12)[C@@H]1NC(=O)[C@@H]2C[C@H](F)CN2C(=O)CNC(=O)[C@H](Cc2ccc(C(=O)O)cc2)NC(=O)[C@H](Cc2ccncc2)NC(=O)[C@H](Cc2ccc(-c3ccc(C(=O)O)cc3)cc2)NC(=O)[C@H]2C[C@@H](Cc3ccc(F)cc3)CN2C(=O)CNC(=O)[C@H](CO)NC(=O)[C@H](CCC(N)=O)NC(=O)[C@H](Cc2cncnc2)NC(=O)C(C)(C)NC(=O)[C@H](Cc2c[nH]c3ccccc23)NC(=O)[C@H](CCC(=O)O)NC(=O)C(C)(C)NC1=O` [Example 3] (cyclo([Bip(4'-COOH)][4Pal][Phe(4-COOH)]G[Pro(cis-4-F)][Trp(βS-Me,4-F)][Aib]EW[Aib][Ala(pyrimidin-5-yl)]QSG[dPro(4R-Bzl(4-F))])), the IC50 was determined as 37 pM.

For the compound `C[C@@H](c1c[nH]c2cccc(F)c12)[C@@H]1NC(=O)[C@@H]2C[C@H](F)CN2C(=O)CNC(=O)[C@H](Cc2ccc(C(=O)O)cc2)NC(=O)[C@H](Cc2ccncc2)NC(=O)[C@H](Cc2ccc(-c3ccc(C(=O)O)cc3)cc2)NC(=O)[C@H]2C[C@@H](Cc3ccc(F)cc3)CN2C(=O)CNC(=O)[C@H](CCN)NC(=O)[C@H](CCC(N)=O)NC(=O)[C@H](Cc2cncnc2)NC(=O)C(C)(C)NC(=O)[C@H](Cc2c[nH]c3ccccc23)NC(=O)[C@H](CCC(=O)O)NC(=O)C(C)(C)NC1=O` [Example 4] (cyclo([Bip(4'-COOH)][4Pal][Phe(4-COOH)]G[Pro(cis-4-F)][Trp(βS-Me,4-F)][Aib]EW[Aib][Ala(pyrimidin-5-yl)]Q[Dab]G[dPro(4R-Bzl(4-F))])), the IC50 was found to be 31 pM.

Regarding `C[C@@H](c1c[nH]c2cccc(F)c12)[C@@H]1NC(=O)[C@@H]2C[C@H](F)CN2C(=O)CNC(=O)[C@H](Cc2ccc(C(=O)O)cc2)NC(=O)[C@H](Cc2ccncc2)NC(=O)[C@H](Cc2ccc(-c3ccc(C(=O)O)cc3)cc2)NC(=O)[C@H]2C[C@@H](Cc3ccc(F)cc3)CN2C(=O)CNC(=O)[C@H](CCN)NC(=O)[C@H](CCC(N)=O)NC(=O)[C@H](CO)NC(=O)C(C)(C)NC(=O)[C@H](Cc2c[nH]c3ccccc23)NC(=O)[C@H](CO)NC(=O)C(C)(C)NC1=O` [Example 5] (cyclo([Bip(4'-COOH)][4Pal][Phe(4-COOH)]G[Pro(cis-4-F)][Trp(βS-Me,4-F)][Aib]SW[Aib]SQ[Dab]G[dPro(4R-Bzl(4-F))])), the IC50 was determined as 39 pM.

Take `C[C@@H](c1c[nH]c2cccc(F)c12)[C@@H]1NC(=O)[C@@H]2C[C@H](F)CN2C(=O)CNC(=O)[C@H](Cc2ccc(C(=O)O)cc2)NC(=O)[C@H](Cc2ccncc2)NC(=O)[C@H](Cc2ccc(-c3ccc(C(=O)O)cc3)cc2)NC(=O)[C@H]2C[C@@H](Cc3ccc(F)cc3)CN2C(=O)CNC(=O)[C@H](CN)NC(=O)[C@H](CCC(N)=O)NC(=O)[C@H](Cc2cncnc2)NC(=O)C(C)(C)NC(=O)[C@H](Cc2c[nH]c3ccccc23)NC(=O)[C@H](CCC(=O)O)NC(=O)C(C)(C)NC1=O` [Example 7] (cyclo([Bip(4'-COOH)][4Pal][Phe(4-COOH)]G[Pro(cis-4-F)][Trp(βS-Me,4-F)][Aib]EW[Aib][Ala(pyrimidin-5-yl)]Q[Dap]G[dPro(4R-Bzl(4-F))])): the IC50 was found to be 26 pM.

In the case of `C[C@@H](c1c[nH]c2cccc(F)c12)[C@@H]1NC(=O)[C@@H]2C[C@H](F)CN2C(=O)CNC(=O)[C@H](Cc2ccc(C(=O)O)cc2)NC(=O)[C@H](Cc2ccncc2)NC(=O)[C@H](Cc2ccc(-c3ccc(C(=O)O)cc3)cc2)NC(=O)[C@H]2C[C@@H](Cc3ccc(F)cc3)CN2C(=O)CNC(=O)[C@H](CCCN)NC(=O)[C@H](CCC(N)=O)NC(=O)[C@H](Cc2cncnc2)NC(=O)C(C)(C)NC(=O)[C@H](Cc2c[nH]c3ccccc23)NC(=O)[C@H](CCC(=O)O)NC(=O)C(C)(C)NC1=O` [Example 8] (cyclo([Bip(4'-COOH)][4Pal][Phe(4-COOH)]G[Pro(cis-4-F)][Trp(βS-Me,4-F)][Aib]EW[Aib][Ala(pyrimidin-5-yl)]Q[Orn]G[dPro(4R-Bzl(4-F))])), the IC50 was 26 pM.

On to `C[C@@H](c1c[nH]c2cccc(F)c12)[C@@H]1NC(=O)[C@@H]2C[C@H](F)CN2C(=O)CNC(=O)[C@H](Cc2ccc(C(=O)O)cc2)NC(=O)[C@H](Cc2ccncc2)NC(=O)[C@H](Cc2ccc(-c3ccc(C(=O)O)cc3)cc2)NC(=O)[C@H]2C[C@@H](Cc3ccc(F)cc3)CN2C(=O)CNC(=O)[C@H](CCCCN)NC(=O)[C@H](CCC(N)=O)NC(=O)[C@H](Cc2cncnc2)NC(=O)C(C)(C)NC(=O)[C@H](Cc2c[nH]c3ccccc23)NC(=O)[C@H](CCC(=O)O)NC(=O)C(C)(C)NC1=O` [Example 9] (cyclo([Bip(4'-COOH)][4Pal][Phe(4-COOH)]G[Pro(cis-4-F)][Trp(βS-Me,4-F)][Aib]EW[Aib][Ala(pyrimidin-5-yl)]QKG[dPro(4R-Bzl(4-F))])), for which the IC50 was determined as 28 pM.

In the case of `CC(=O)NCCOc1ccc(C[C@@H]2NC(=O)[C@H]3C[C@@H](Cc4ccc(F)cc4)CN3C(=O)CNC(=O)[C@H](CCN)NC(=O)[C@H](CCC(N)=O)NC(=O)[C@H](Cc3cncnc3)NC(=O)C(C)(C)NC(=O)[C@H](Cc3c[nH]c4ccccc34)NC(=O)[C@H](CCC(=O)O)NC(=O)C(C)(C)NC(=O)[C@H]([C@@H](C)c3c[nH]c4cccc(F)c34)NC(=O)[C@@H]3C[C@H](F)CN3C(=O)CNC(=O)[C@H](Cc3ccc(C(=O)O)cc3)NC(=O)[C@H](Cc3ccncc3)NC2=O)cc1` [Example 10] (cyclo([AEF](Ac)[4Pal][Phe(4-COOH)]G[Pro(cis-4-F)][Trp(βS-Me,4-F)][Aib]EW[Aib][Ala(pyrimidin-5-yl)]Q[Dab]G[dPro(4R-Bzl(4-F))])), the IC50 came out at 27 pM.

With `CC(=O)NCCOc1ccc(C[C@@H]2NC(=O)[C@H]3C[C@@H](Cc4ccc(F)cc4)CN3C(=O)CNC(=O)[C@H](CN)NC(=O)[C@H](CCC(N)=O)NC(=O)[C@H](Cc3cncnc3)NC(=O)C(C)(C)NC(=O)[C@H](Cc3c[nH]c4ccccc34)NC(=O)[C@H](CCC(=O)O)NC(=O)C(C)(C)NC(=O)[C@H]([C@@H](C)c3c[nH]c4cccc(F)c34)NC(=O)[C@@H]3C[C@H](F)CN3C(=O)CNC(=O)[C@H](Cc3ccc(C(=O)O)cc3)NC(=O)[C@H](Cc3ccncc3)NC2=O)cc1` [Example 11] (cyclo([AEF](Ac)[4Pal][Phe(4-COOH)]G[Pro(cis-4-F)][Trp(βS-Me,4-F)][Aib]EW[Aib][Ala(pyrimidin-5-yl)]Q[Dap]G[dPro(4R-Bzl(4-F))])), the IC50 came to 45 pM.
